Laboratory results reported in PMC12775434, “Ultra-large virtual screening unveils potent agonists of the neuromodulatory orphan receptor GPR139” (Nature Communications, 2025).
Where “and” joins values, the source holds several entries; their conditions need not be identical. Equal entries are not always repeated. Where two headings read alike, the source gives them in different places.

Tests used:
Format in all cases: cell-based
GPR139 [1] = target: T1, GPR139 (Homo sapiens, UniProt Q6DWJ6); assay: Ca2+ mobilization assay, agonist mode, stable GPR139-CHOk1 cell line; details: for Emax: normalized to Lundbeck Cmp 1a, read-out: Emax (%) Ca2+
T1 sequence (Q6DWJ6 1-353): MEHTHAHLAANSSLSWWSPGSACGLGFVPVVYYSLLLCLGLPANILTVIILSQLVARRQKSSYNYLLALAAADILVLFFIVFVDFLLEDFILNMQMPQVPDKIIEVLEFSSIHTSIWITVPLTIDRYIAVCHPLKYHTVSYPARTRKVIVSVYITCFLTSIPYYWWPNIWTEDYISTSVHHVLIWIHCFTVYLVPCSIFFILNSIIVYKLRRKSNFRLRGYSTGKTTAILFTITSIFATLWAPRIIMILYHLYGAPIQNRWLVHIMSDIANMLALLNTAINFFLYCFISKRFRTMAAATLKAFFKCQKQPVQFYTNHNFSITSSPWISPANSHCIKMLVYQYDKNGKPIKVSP
Summary of the method: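 Agonist activity of compounds is assessed in stably transfected CHO-K1 cells using the calcium dye Fluo-4 at 37 °C in HEPES-buffered HBSS (pH 7.4). Efficacy is expressed relative to the reference agonist Lundbeck Cmp 1a, set as 100%.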

GPR139 [2] = target: T1, GPR139; assay: Ca2+ mobilization assay, antagonist mode (EC80 800 nM Lundbeck Cmp 1a after 20 min preincubation), GPR139-CHOk1
Summary of the method: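 Fluo-4-loaded GPR139-CHOk1 cells in HEPES-buffered HBSS (pH 7.4, 2.5 mM probenecid) given test compounds at 10 µM, then after 20 min challenged with 800 nM Lundbeck Cmp 1a (EC80). Calcium fluorescence read at 37 °C, 485/525 nm.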

[3] = target: T2, human muscarinic acetylcholine M1 receptor (M1R) (Homo sapiens, UniProt P11229); assay: Ca2+ mobilization counter-screen in M1R-CHOk1 cells
T2 sequence (P11229 1-460): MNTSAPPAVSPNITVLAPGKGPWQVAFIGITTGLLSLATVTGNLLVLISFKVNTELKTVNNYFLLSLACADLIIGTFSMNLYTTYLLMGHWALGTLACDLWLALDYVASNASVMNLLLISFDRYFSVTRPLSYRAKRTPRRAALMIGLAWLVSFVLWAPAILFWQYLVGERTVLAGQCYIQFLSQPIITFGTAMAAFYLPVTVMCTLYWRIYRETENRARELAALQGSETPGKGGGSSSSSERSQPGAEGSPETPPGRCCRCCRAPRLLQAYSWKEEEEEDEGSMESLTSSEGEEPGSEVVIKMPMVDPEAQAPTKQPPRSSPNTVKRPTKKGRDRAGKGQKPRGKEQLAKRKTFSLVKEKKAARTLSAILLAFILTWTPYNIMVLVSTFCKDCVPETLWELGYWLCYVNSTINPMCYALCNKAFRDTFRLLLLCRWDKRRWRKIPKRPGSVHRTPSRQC
Description: Primary screening and pharmacological characterization of compounds were performed using a CHO-K1 cell line that stably expresses human GPR139 (GPR139-CHOk1). The GPR139-CHOk1 cell line was kindly provided by H. Lundbeck A/S, Denmark[24]. GPR139-CHOk1 cells were grown in Ham’s F-12 Kaighn’s Modification Medium (ThermoFisher #21127030) supplemented with 10% dialyzed fetal bovine serum (US origin, ThermoFisher #26400044), 100 units/mL Penicillin-Streptomycin (ThermoFisher #15140122), and 1 mg/mL Geneticin (ThermoFisher #11811031). […] M1R-CHOk1 cells were purchased from The Missouri S&T cDNA Resource Center (#CEM100TN00). M1R-CHOk1 cells were grown in Ham’s F12 Medium (ThermoFisher #21765029) supplemented with 10% fetal bovine serum (Brazilian origin, ThermoFisher #10270106), 100 units/mL Penicillin-Streptomycin, and 0.25 mg/mL Geneticin. HEK293A cells transiently transfected with GPR139 were used for additional pharmacological assessment of signaling pathways activated by GPR139. HEK239A cells were generously provided by Dr. Asuka Inoue, Tohoku University, Japan. HEK293A cells were grown in Dulbecco’s Modified Eagle Medium (ThermoFisher #31966047) supplemented with 10% dialyzed fetal bovine serum and 100 units/mL Penicillin-Streptomycin. Cell lines were maintained at 37 °C in humidified incubator equilibrated with 5% CO2.
30,000 GPR139- or M1R-CHOk1 cells/well were seeded in black clear bottom tissue culture treated 96-well plates (Greiner #655090) and grown for 20–24 h. Cells were washed with HEPES buffer (Hank’s Balanced Salt Solution (HBBS) supplemented with 20 mM HEPES, 1 mM MgCl2, and 1 mM CaCl2; pH 7.4). Cells were loaded with 50 µL of 2 µM Fluo-4 AM dye (ThermoFisher #F14202) in HEPES buffer supplemented with 2.5 mM probenecid and 0.01% Pluronic F-68 (ThermoFisher #24040032) for 1 h at 37 °C. Cells were washed with HEPES buffer. 50 µL HEPES buffer supplemented with 2.5 mM probenecid was added, and the cells were incubated for 10 min at 37 °C before measurement. 50 µL test compounds diluted in HEPES buffer from DMSO stocks (final DMSO concentration of maximally 0.3%) were added automatically after baseline measurements. The intracellular calcium mobilization was measured on a FlexStation 3 Multimode Microplate Reader (Molecular Devices) at 37 °C with filters for excitation of 485 nm and emission of 525 nm.

[4] = Agonist mode, individual replicates (Supplementary Figure 4)
[5] = Supplementary Table 2, mean ± SEM
[6] = log [Compound] M = -4.5, individual replicate columns
[7] = log [Compound] M = -5.0, individual replicate columns
[8] = log [Compound] M = -5.5, individual replicate columns
[9] = log [Compound] M = -6.0, individual replicate columns
[10] = log [Compound] M = -6.5, individual replicate columns
[11] = log [Compound] M = -7.0, individual replicate columns
[12] = log [Compound] M = -7.5, individual replicate columns
[13] = log [Compound] M = -8.0, individual replicate columns
[14] = log [Compound] M = -8.5, individual replicate columns
[15] = log [Compound] M = -9.0, individual replicate columns
[16] = individual replicates (Supplementary Figure 4)
[17] = individual replicates (Supplementary Figure 5)
[18] = 0.1 µM, individual replicates (Supplementary Figure 3)
[19] = 1 µM, individual replicates (Supplementary Figure 3)
[20] = 10 µM, individual replicates (Supplementary Figure 3)
[21] = Agonist mode, individual replicates (Supplementary Figure 1)
[22] = primary screen, 10 µM compound, agonist mode, three columns = independent experiments
[23] = individual replicates (Supplementary Figure 1)
[24] = individual replicates (Supplementary Figure 2)

Compound | Ca2+ signal (% of Cmp 1a) (GPR139 [1]; [4]) | Emax (GPR139 [1]; [5]) [%] | Ca2+ signal (% of Cmp 1a) (GPR139 [1]; [6]) | Ca2+ signal (% of Cmp 1a) (GPR139 [1]; [7]) | Ca2+ signal (% of Cmp 1a) (GPR139 [1]; [8]) | Ca2+ signal (% of Cmp 1a) (GPR139 [1]; [9]) | Ca2+ signal (% of Cmp 1a) (GPR139 [1]; [10]) | Ca2+ signal (% of Cmp 1a) (GPR139 [1]; [11]) | Ca2+ signal (% of Cmp 1a) (GPR139 [1]; [12]) | Ca2+ signal (% of Cmp 1a) (GPR139 [1]; [13]) | Ca2+ signal (% of Cmp 1a) (GPR139 [1]; [14]) | Ca2+ signal (% of Cmp 1a) (GPR139 [1]; [15]) | Ca2+ signal (% of Cmp 1a) (GPR139 [2]; [16]) | Ca2+ signal (% of Carbachol) [3, 17] | Ca2+ signal (% of Cmp 1a) (GPR139 [1]; [18]) | Ca2+ signal (% of Cmp 1a) (GPR139 [1]; [19]) | Ca2+ signal (% of Cmp 1a) (GPR139 [1]; [20]) | Ca2+ signal (% of Cmp 1a) (GPR139 [1]; [21]) | Ca2+ signal (% of Cmp 1a) (GPR139 [1]; [22]) | Ca2+ signal (% of Cmp 1a) (GPR139 [2]; [23]) | further results
Cc1ccc(-c2nc(CC(=O)NC(C)c3ccccc3)no2)cc1 (stereo not drawn) [Compound 1.14, CC(C1=CC=CC=C1)NC(CC2=NOC(C3=CC=C(C)C=C3)=N2)=O] | 71 % of Cmp 1a and 82 % of Cmp 1a and 46 % of Cmp 1a | 89 ± 15 | 97 % of Cmp 1a and 92 % of Cmp 1a and 89 % of Cmp 1a and 44 % of Cmp 1a | 79 % of Cmp 1a and 86 % of Cmp 1a and 77 % of Cmp 1a and 48 % of Cmp 1a | 61 % of Cmp 1a and 79 % of Cmp 1a and 69 % of Cmp 1a and 48 % of Cmp 1a | 61 % of Cmp 1a and 52 % of Cmp 1a and 58 % of Cmp 1a and 40 % of Cmp 1a | 42 % of Cmp 1a and 32 % of Cmp 1a and 38 % of Cmp 1a and 28 % of Cmp 1a | 17 % of Cmp 1a and 12 % of Cmp 1a and 27 % of Cmp 1a and 22 % of Cmp 1a | 5.33 % of Cmp 1a and 7 % of Cmp 1a and 30 % of Cmp 1a and -6 % of Cmp 1a | 12 % of Cmp 1a and 2.67 % of Cmp 1a (2×) and 0.667 % of Cmp 1a | -1.67 % of Cmp 1a and -4 % of Cmp 1a and 1.67 % of Cmp 1a | 8 % of Cmp 1a and 10 % of Cmp 1a and -3.67 % of Cmp 1a and 1 % of Cmp 1a | 7 % of Cmp 1a and -0.667 % of Cmp 1a and 13 % of Cmp 1a | -9 % of Carbachol and -1 % of Carbachol and 10 % of Carbachol | – | – | – | – | – | – | EC50 (GPR139 [1]; GPR139-CHOk1, read-out: EC50, Ca2+ mobilization): 400 nM
CN(Cc1cc(Cl)cn1C)C(=O)CCC(=O)c1cccs1 [Compound 11, CN(CC1=CC(Cl)=CN1C)C(=O)CCC(=O)C2=CC=CS2] | – | – | – | – | – | – | – | – | – | – | – | – | – | – | 1.5 % of Cmp 1a and 12.7 % of Cmp 1a | -6.5 % of Cmp 1a and 1.1 % of Cmp 1a | 13.9 % of Cmp 1a and 12.8 % of Cmp 1a | 40 % of Cmp 1a and 30 % of Cmp 1a and 33 % of Cmp 1a | 40 % of Cmp 1a and 30 % of Cmp 1a and 33 % of Cmp 1a | 63.3528 % of Cmp 1a and 60.457 % of Cmp 1a and 64.2066 % of Cmp 1a | Ca2+ signal (% of Carbachol) [3, 24]: -4 % of Carbachol and 17 % of Carbachol
C[C@H](NC(=O)c1ccc(Cn2cc(Cl)cn2)o1)c1ccccc1 [Compound 8, C[C@H](NC(=O)C1=CC=C(CN2C=C(Cl)C=N2)O1)C=3C=CC=CC3] | – | – | – | – | – | – | – | – | – | – | – | – | – | – | -2.0 % of Cmp 1a and -2.7 % of Cmp 1a | 3.0 % of Cmp 1a and 3.4 % of Cmp 1a | 24.4 % of Cmp 1a and 22.7 % of Cmp 1a | 47 % of Cmp 1a and 45 % of Cmp 1a and 51 % of Cmp 1a | 47 % of Cmp 1a and 45 % of Cmp 1a and 51 % of Cmp 1a | 48.2832 % of Cmp 1a and 57.355 % of Cmp 1a and 45.2011 % of Cmp 1a | Ca2+ signal (% of Carbachol) [3, 24]: -17 % of Carbachol and 6 % of Carbachol
Cc1ncc(-c2nc(CC(=O)NC(C)c3ccccc3)no2)s1 (stereo not drawn) [Compound 1.34, CC(C1=CC=CC=C1)NC(CC2=NOC(C3=CN=C(S3)C)=N2)=O] | 81 % of Cmp 1a and 51 % of Cmp 1a | 90 ± 6 | 108 % of Cmp 1a and 98 % of Cmp 1a and 84 % of Cmp 1a and 88 % of Cmp 1a | 66 % of Cmp 1a and 94 % of Cmp 1a and 68 % of Cmp 1a and 51 % of Cmp 1a | 43 % of Cmp 1a and 86 % of Cmp 1a and 38 % of Cmp 1a and 21 % of Cmp 1a | 8.56 % of Cmp 1a and 40 % of Cmp 1a and 9.49 % of Cmp 1a and -0.9 % of Cmp 1a | -2.32 % of Cmp 1a and 12 % of Cmp 1a and 4.69 % of Cmp 1a and 1.79 % of Cmp 1a | 3 % of Cmp 1a (2×) and -4 % of Cmp 1a and 10 % of Cmp 1a | 8 % of Cmp 1a and -0.386 % of Cmp 1a and 18 % of Cmp 1a and 3.4 % of Cmp 1a | 15 % of Cmp 1a and -0.802 % of Cmp 1a and 16 % of Cmp 1a and 14 % of Cmp 1a | 6.66 % of Cmp 1a and 2 % of Cmp 1a and 14 % of Cmp 1a and 12 % of Cmp 1a | 1.77 % of Cmp 1a and 8 % of Cmp 1a and 11 % of Cmp 1a and 6 % of Cmp 1a | 33 % of Cmp 1a and 16 % of Cmp 1a and 43 % of Cmp 1a | 0.0525 % of Carbachol and -0.37 % of Carbachol and -1 % of Carbachol | – | – | – | – | – | – | fold decrease in potency relative to parent compound 1 (GPR139 [1]; Ca2+ mobilization EC50): 3- to 25 fold; EC50 (GPR139 [1]; Supplementary Table 2, mean ± SEM, read-out: pEC50 Ca2+ (converted)): 3980 nM
